Measured values taken from US20240018122A1, “PYRIDAZINYL AMINO DERIVATIVES AS ALK5 INHIBITORS” (CHIESI FARMACEUTICI S.P.A., priority 2020, published 2024).
Like-named read-outs stand apart in the source and are kept apart here.

Target: human ALK5 (Homo sapiens (Human), UniProt P36897)
Assay: ADP-GLO Kinases assay, inhibitory activity on ALK5
Assay type: biochemical
[1] = purified recombinant human ALK5 2.6 nM, TGFβ1 peptide substrate, 25° C, 150 min incubation, ADP-Glo detection, read-out: ALK5 IC50

Sequence of human ALK5 (P36897 80-503 limits assumed): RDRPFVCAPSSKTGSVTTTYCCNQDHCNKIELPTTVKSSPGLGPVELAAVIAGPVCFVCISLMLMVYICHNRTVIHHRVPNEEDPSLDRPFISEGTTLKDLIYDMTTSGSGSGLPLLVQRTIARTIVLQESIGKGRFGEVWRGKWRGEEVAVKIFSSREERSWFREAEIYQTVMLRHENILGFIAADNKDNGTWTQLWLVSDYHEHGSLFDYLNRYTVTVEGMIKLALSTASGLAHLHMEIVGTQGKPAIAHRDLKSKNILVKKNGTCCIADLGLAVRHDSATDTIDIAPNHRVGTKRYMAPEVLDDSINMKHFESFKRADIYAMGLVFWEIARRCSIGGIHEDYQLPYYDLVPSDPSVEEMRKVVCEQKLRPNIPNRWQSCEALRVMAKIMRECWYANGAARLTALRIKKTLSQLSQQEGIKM

Row | SMILES | IC50 [1] [nM] | IC50 [nM]
1 | Cc1nnc(-c2cc(Cl)ccc2F)cc1Nc1ccnc(NC(=O)CCN2CCN(CCO)CC2)c1 [Example 80, N-(4-{[6-(5-Chloro-2-Fluorophenyl)-3-Methylpyridazin-4-Yl]Amino}Pyridin-2-Yl)-3-[4-(2-Hydroxyethyl)Piperazin-1-Yl]Propanamide] | < 1 | 
2 | O=C(OCCN1CCOCC1)c1ccc2c(Nc3cnnc(-c4cc(Cl)ccc4F)c3)ccnc2c1 [Example 6, 2-(Morpholin-4-Yl)Ethyl 4-{[6-(5-Chloro-2-Fluorophenyl)Pyridazin-4-Yl]Amino}Quinoline-7-Carboxylate] | < 1 | 
3 | COC(=O)N(C)CCN1CCN(CC(=O)Nc2cc(Nc3cc(-c4cc(Cl)ccc4F)nnc3C)ccn2)CC1 [Example 107, Methyl N-[2-(4-{[(4-{[6-(5-Chloro-2-Fluorophenyl)-3-Methylpyridazin-4-Yl]Amino}Pyridin-2-Yl)Carbamoyl]Methyl}Piperazin-1-Yl)Ethyl]-N-Methylcarbamate] | < 1 | 
4 | O=C(Oc1ccc2c(Nc3cnnc(-c4cc(Cl)ccc4F)c3)ccnc2c1)N1CC(N2CCCC2)C1 [Example 133, 4-{[6-(5-Chloro-2-Fluorophenyl)Pyridazin-4-Yl]Amino}Quinolin-7-Yl 3-(Pyrrolidin-1-Yl)Azetidine-1-Carboxylate] | < 1 | 
5 | CN1CC2CC1CN2C(=O)Oc1ccc2c(Nc3cnnc(-c4cc(Cl)ccc4F)c3)ccnc2c1 (centres unmarked) [Example 137, 4-{[6-(5-Chloro-2-Fluorophenyl)Pyridazin-4-Yl]Amino}Quinolin-7-Yl 5-Methyl-2,5-Diazabicyclo[2.2.1]Heptane-2-Carboxylate] | < 1 | 
6 | O=C(OCCN1CCOCC1)c1ccc2nccc(Nc3cnnc(-c4cc(Cl)ccc4F)c3)c2c1 [Example 5, 2-(Morpholin-4-Yl)Ethyl 4-{[6-(5-Chloro-2-Fluorophenyl)Pyridazin-4-Yl]Amino}Quinoline-6-Carboxylate] | 5 to 10 | 
7 | Cc1nnc(-c2cc(Cl)ccc2F)cc1Nc1ccnc(NC(=O)CCN2CCN(C)C(C(=O)OC3CC3)C2)c1 (centres unmarked) [Example 127, Cyclopropyl 4-{2-[(4-{[6-(5-Chloro-2-Fluorophenyl)-3-Methylpyridazin-4-Yl]Amino}Pyridin-2-Yl)Carbamoyl]Ethyl}-1-Methylpiperazine-2-Carboxylate] | < 1 | 
8 | Cc1nnc(-c2cc(Cl)ccc2F)cc1Nc1ccnc(NC(=O)CCCN2CCN(C)CC2)c1 [Example 65, N-(4-{[6-(5-Chloro-2-Fluorophenyl)-3-Methylpyridazin-4-Yl]Amino}Pyridin-2-Yl)-4-(4-Methylpiperazin-1-Yl)Butanamide] | < 1 | 
9 | OCCN(CCO)CCN1CCN(CCOc2ccc3c(Nc4cnnc(-c5cc(Cl)ccc5F)c4)ccnc3c2)CC1 [Example 75, 2-{[2-(4-{2-[(4-{[6-(5-Chloro-2-Fluorophenyl)Pyridazin-4-Yl]Amino}Quinolin-7-Yl)Oxy]Ethyl}Piperazin-1-Yl)Ethyl](2-Hydroxyethyl)Amino}Ethan-1-Ol] | < 1 | 
10 | COC(=O)CC1CN(CCC(=O)Nc2cc(Nc3cc(-c4cc(Cl)ccc4F)nnc3C)ccn2)CCN1 (centres unmarked) [Example 97, Methyl 2-(4-{2-[(4-{[6-(5-Chloro-2-Fluorophenyl)-3-Methylpyridazin-4-Yl]Amino}Pyridin-2-Yl)Carbamoyl]Ethyl}Piperazin-2-Yl)Acetate] | < 1 | 
11 | Cc1nnc(-c2cc(Cl)ccc2F)cc1Nc1ccnc2cc(OC(=O)N3C[C@@H]4C[C@H]3CN4C)ccc12 [Example 160, 4-{[6-(5-Chloro-2-Fluorophenyl)-3-Methylpyridazin-4-Yl]Amino}Quinolin-7-Yl (1S,4S)-5-Methyl-2,5-Diazabicyclo[2.2.1]Heptane-2-Carboxylate] |  | < 1
12 | O=C(CCCN1CCOCC1)Nc1cc(Nc2cnnc(-c3cc(Cl)ccc3F)c2)ccn1 [Example 8, N-(4-{[6-(5-Chloro-2-Fluorophenyl)Pyridazin-4-Yl]Amino}Pyridin-2-Yl)-4-(Morpholin-4-Yl)Butanamide] | < 1 | 
13 | CNCCN1CCN(CC(=O)Nc2cc(Nc3cc(-c4cc(Cl)ccc4F)nnc3C)ccn2)CC1 [Example 106, N-(4-{[6-(5-Chloro-2-Fluorophenyl)-3-Methylpyridazin-4-Yl]Amino}Pyridin-2-Yl)-2-{4-[2-(Methylamino)Ethyl]Piperazin-1-Yl}Acetamide] | < 1 | 

Second part, led by results:

Row | IC50 [1] [nM] | SMILES | IC50 [nM]
14 | < 1 | Cc1nnc(-c2cc(Cl)ccc2F)cc1Nc1ccnc(NC(=O)N2CCC3(CC2)CN(C)C3)c1 [Example 149, N-(4-{[6-(5-Chloro-2-Fluorophenyl)-3-Methylpyridazin-4-Yl]Amino}Pyridin-2-Yl)-2-Methyl-2,7-Diazaspiro[3.5]Nonane-7-Carboxamide] | 
15 | < 1 | CS(=O)(=O)CCN1CCN(CCC(=O)Nc2cc(Nc3cc(-c4cc(Cl)ccc4F)nnc3C(F)(F)F)ccn2)CC1 [Example 185] | 
16 | < 1 | Cc1nnc(-c2cc(Cl)ccc2F)cc1Nc1ccnc(NC(=O)CCN2CCS(=O)(=O)CC2)c1 [Example 132, N-(4-{[6-(5-Chloro-2-Fluorophenyl)-3-Methylpyridazin-4-Yl]Amino}Pyridin-2-Yl)-3-(1,1-Dioxo-11,6-Thiomorpholin-4-Yl)Propanamide] | 
17 | < 1 | Cc1nnc(-c2cc(Cl)c(F)cc2F)cc1Nc1ccnc(NC(=O)CCN2CCN(C)CC2)c1 [Example 151, N-(4-{[6-(5-chloro-2,4-difluorophenyl)-3-methylpyridazin-4-yl]amino}pyridin-2-yl)-3-(4-methylpiperazin-1-yl)propanamide] | 
18 | < 1 | Cc1nnc(-c2cc(Cl)ccc2F)cc1Nc1ccnc(NC(=O)CN2CCN(C)C3(CC3)C2)c1 [Example 144, N-(4-{[6-(5-Chloro-2-Fluorophenyl)-3-Methylpyridazin-4-Yl]Amino}Pyridin-2-Yl)-2-{4-Methyl-4,7-Diazaspiro[2.5]Octan-7-Yl}Acetamide] | 
19 | < 1 | COC(=O)c1cc2c(Nc3cnnc(-c4cc(Cl)ccc4F)c3)ccnc2cc1OCCN1CCN(C)CC1 [Example 171, Methyl 4-{[6-(5-Chloro-2-Fluorophenyl)Pyridazin-4-Yl]Amino}-7-[2-(4-Methylpiperazin-1-Yl)Ethoxy]Quinoline-6-Carboxylate] | 
20 | < 1 | CN1CCN(CCC(=O)Nc2cc(Nc3cc(-c4cc(Cl)ccc4F)nnc3C3CC3)ccn2)CC1 [Example 173] | 
21 | < 1 | Cc1nnc(-c2cc(Cl)ccc2F)cc1Nc1ccnc(NC(=O)CCN2CCN(C)C(C(=O)OC3COC3)C2)c1 (centres unmarked) [Example 129, oxetan-3-yl 4-{2-[(4-{[6-(5-chloro-2-fluorophenyl)-3-methylpyridazin-4-yl]amino}pyridin-2-yl)carbamoyl]ethyl}-1-methylpiperazine-2-carboxylate] | 
22 | < 1 | Cc1nnc(-c2cc(Cl)ccc2F)cc1Nc1ccnc(NC(=O)CCN2CC[S+]([O-])CC2)c1 [Example 130, N-(4-{[6-(5-Chloro-2-Fluorophenyl)-3-Methylpyridazin-4-Yl]Amino}Pyridin-2-Yl)-3-(1-Oxo-1V-Thiomorpholin-4-Yl)Propanamide] | 
23 | 1 to 5 | COC(=O)[C@H]1CC[C@@H](c2nnc(-c3cc(Cl)ccc3F)cc2Nc2ccnc(NC(=O)CCN3CCN(C)CC3)c2)CC1 [Example 188, methyl cis-4-(6-(5-chloro-2-fluorophenyl)-4-((2-(3-(4-methylpiperazin-1-yl)propanamido)pyridin-4-yl)amino)pyridazin-3-yl)cyclohexane-1-carboxylate] | 
